Test results taken from US20080261895A1 (Wyeth, priority 2006, published 2008).
Where “and” joins values, the source holds several entries; their conditions need not be identical. Identical values can stand only once. Marks after values point to notes of the source that are not given here.

What was measured:
Format in all cases: in vivo, beagle dogs
[1] = Whole blood and plasma radioactivity and partitioning after single oral [14C]DVS, dogs; conditions: single oral 30 mg/kg; for Radioactivity in Plasma, Individual Dogs / Radioactivity in Plasma, Mean ± S.D. / Radioactivity in Whole Blood, Individual Dogs: listed as [^14C]DVS, 30 mg/kg
Protocol: Male beagle dogs (n=4), weighing between 14.4 and 16.2 kg at the time of dosing (from an in-house colony), were used. For ease of reporting, the animals were designated numbers 5 through 8. Dose preparation, animal dosing and sample collection were performed at Wyeth Research, Pearl River, N.Y.
The oral dosing solution was prepared by suspending 19.0 mg of [^14C]DVS and 4168.3 mg of unlabeled DVS in 270 mL of vehicle (0.25% polysorbate 80, 0.5% methylcellulose in water). The radiochemical purity, specific activity and concentration of [^14C]DVS (bulk drug and dosing solution) were determined using HPLC with radiometric detection. Duplicate aliquots of the dosing solution were taken pre-, mid- and post-dose for the determination of specific activity and radioactivity concentrations of the dosing solution.
The target dose for each animal was 30 mg/kg (free base; 10 mg/mL, 3 mL/kg, 30 μCi/kg) [^14C]DVS via oral gavage. The target dose was selected because it has been used in previous pharmacokinetic studies.
Whole blood (approximately 10 mL), collected into heparinized tubes at 1, 4, 8, and 24 hours post-dose (N=4 for each time point), was analyzed. One mL of blood was transferred to a fresh tube to be used for determination of radioactivity concentrations. Plasma was obtained by centrifugation at 4° C. within two hours of blood collection. Plasma and whole blood samples were shipped on dry ice to Wyeth Research, Biotransformation Division (Collegeville, Pa.) for analysis. Triplicate aliquots of whole blood (200 μL) were placed into combusto-cones and allowed to air dry. These samples were then oxidized and radioactivity content determined. Triplicate aliquots (100 μL) of the plasma samples were analyzed for radioactivity content. The remaining plasma was stored at −70° C. until metabolite analysis.
(§1) For each dog, urine and feces were collected separately, with urine collected on dry ice and feces collected at room temperature. Collections were from 0-8 and 8-24 hours for urine and 0-24 hours for feces. Urine and fecal samples were shipped on dry ice to Wyeth Research, Biotransformation Division (Collegeville, Pa.) for analysis. Fecal samples were homogenized in approximately five volumes (v/w) of water. Aliquots of approximately 0.2 grams of the homogenate were placed into combusto-cones, weighed and allowed to air dry. These samples were then oxidized and radioactivity content determined. The remaining urine samples and fecal homogenates were stored at −70° C. until metabolite analysis. Blood samples and fecal homogenates were oxidized in a Model 307 Tri-Carb sample oxidizer, using Carbosorb® E (6 mL) as trapping agent and PermaFluor® E^+ (10 mL) as scintillant. The background reading (average of control blood or fecal samples) was subtracted from each sample reading. Aliquots of urine and plasma were analyzed directly following the addition of 10 mL of Ultima Gold™ scintillation fluid.
All radioactivity determinations were made using a Tri-Carb Model 3100TR liquid scintillation counter (Packard BioScience, Boston, Mass.) with an Ultima GOl™ or toluene standard curve. Counts per minute (CPM) were converted to disintegrations per minute (DPM) by use of external standards of known radioactivity. The quench of each standard was determined by the transformed spectral index of an external radioactive standard (tSIE). The lower limits of detection were defined as twice background.

[2] = Urinary excretion and metabolite profile by radiochromatography, dogs; conditions: single oral 30 mg/kg
Protocol: as §1
Urine samples collected between 8 and 24 hours post-dose were analyzed for metabolite profiles. Aliquots of urine were centrifuged at 14000 rpm in an Eppendorf Model 5415C centrifuge for 10 minutes. The supernatant was transferred to a fresh tube and analyzed for radioactivity content and by HPLC for metabolite profiling. Selected samples were also analyzed by LC/MS to characterize the radioactive peaks.
(§2) Chromatographic analyses were performed with a Waters Alliance model 2690 HPLC system (Waters Corp., Milford, Mass.). It was equipped with a built-in autosampler and was in-line with a model 2487 tunable UV detector, set to monitor 225 nm, and a FloOne β Model 515 radioactivity flow detector (Perkin Elmer) with a 250 μL LQTR flow cell. The flow rate of Ultima Flow M scintillation fluid was 3 mL/min, providing a mixing ratio of scintillation cocktail to mobile phase of 3:1. Separation of the metabolite peaks was accomplished on a Phenomenex Luna C18(2) column, 250×4.6 mm, 5 micron (Phenomenex, Torrance, Calif.), using a linear gradient of two mobile phases, A and B. Mobile phase A was 10 mM ammonium acetate, pH 5.5, and mobile phase B was acetonitrile. The flow rate was 1 mL/min.

[3] = Fecal excretion and metabolite profile by radiochromatography, dogs; conditions: single oral 30 mg/kg
Protocol: as §1
Fecal homogenates collected up to 24 hours post-dose were analyzed for metabolite profiles. Aliquots of approximately 2 grams of fecal homogenate were transferred to a fresh tube, an equal volume of acetonitrile (v/w) was added, and the tube vortexed. Samples were then centrifuged at 14000 rpm in an Eppendorf Model 5415C centrifuge for 10 minutes. The supernatant was transferred to a clean tube. The residue was re-suspended with 1 mL acetonitrile and centrifuged as described above. The resulting supernatant was combined with the original supernatant and analyzed for radioactivity. The supernatants were then concentrated under a stream of nitrogen in a Turbo Vap to remove the acetonitrile. An aliquot of the aqueous residue was analyzed by HPLC for profiling. Selected samples were also analyzed by LC/MS to characterize the radioactive peaks.
as §2

[4] = includes 0-8 and 8-24 hour time points, 30 mg/kg

## CN(C)CC(c1ccc(O)cc1)C1(O)CCCCC1.O=C(O)CCC(=O)O (centres unmarked) [DVS, O-desmethylvenlafaxine succinate]
[1]; 1 hr
  Radioactivity in Whole Blood, Mean ± S.D.: 8.37 ± 1.45 μg equivalents/mL
  Radioactivity in Plasma, Individual Dogs: 14.6 μg equivalents/mL and 11.5 μg equivalents/mL and 9.56 μg equivalents/mL and 17.5 μg equivalents/mL
  Radioactivity in Plasma, Mean ± S.D.: 13.3 μg equivalents/mL and 13.3 ± 3.5 μg equivalents/mL
  Radioactivity in Whole Blood, Individual Dogs: 8.56 μg equivalents/mL and 8.61 μg equivalents/mL and 6.40 μg equivalents/mL and 9.91 μg equivalents/mL
[1]; 4 hr
  Radioactivity in Whole Blood, Mean ± S.D.: 8.58 ± 0.59 μg equivalents/mL
  Radioactivity in Plasma, Individual Dogs: 17.0 μg equivalents/mL and 16.8 μg equivalents/mL and 16.5 μg equivalents/mL and 17.1 μg equivalents/mL
  Radioactivity in Plasma, Mean ± S.D.: 16.9 μg equivalents/mL and 16.9 ± 0.3 μg equivalents/mL
  Radioactivity in Whole Blood, Individual Dogs: 8.16 μg equivalents/mL and 8.03 μg equivalents/mL and 8.82 μg equivalents/mL and 9.30 μg equivalents/mL
[1]; 8 hr
  Radioactivity in Whole Blood, Mean ± S.D.: 3.84 ± 1.01 μg equivalents/mL
  Radioactivity in Plasma, Individual Dogs: 4.51 μg equivalents/mL and 9.12 μg equivalents/mL and 10.2 μg equivalents/mL and 5.87 μg equivalents/mL
  Radioactivity in Plasma, Mean ± S.D.: 7.43 μg equivalents/mL and 7.43 ± 2.68 μg equivalents/mL
  Radioactivity in Whole Blood, Individual Dogs: 3.30 μg equivalents/mL and 3.79 μg equivalents/mL and 5.27 μg equivalents/mL and 2.98 μg equivalents/mL
[1]; 24 hr
  Radioactivity in Whole Blood, Mean ± S.D.: 0.48 ± 0.20 μg equivalents/mL
  Radioactivity in Plasma, Individual Dogs: 0.66 μg equivalents/mL and 0.86 μg equivalents/mL and 1.14 μg equivalents/mL and 0.56 μg equivalents/mL
  Radioactivity in Plasma, Mean ± S.D.: 0.81 μg equivalents/mL and 0.81 ± 0.25 μg equivalents/mL
  Radioactivity in Whole Blood, Individual Dogs: 0.38 μg equivalents/mL and 0.47 μg equivalents/mL and 0.75 μg equivalents/mL and 0.31 μg equivalents/mL
[2]; [4]
  Radioactivity as % of Dose in urine, Mean ± S.D.: 74.8 ± 13.0^b %
  Radioactivity as % of Dose in urine, individual dogs: 85.4% and 63.0% and 86.6% and 64.0%
[2]; includes 0-8 and 8-24 hour time points, listed as [^14C]DVS, 30 mg/kg
  Radioactivity as % of Dose in urine, Mean ± S.D.: 75%
[2]; urine 8-24 hours post-dose
  Compounds Detected by Radiochromatography in urine, percent of total peaks, Mean ± S.D.: 5.8 ± 1.6%
[2]; urine 8-24 hours post-dose, mean of 2 analyses, 30 mg/kg
  Compounds Detected by Radiochromatography in urine, percent of total peaks, individual dogs: 7.9% and 5.7% and 5.4% and 4.0%
[3]; feces 0-24 hours post dose (dog 7 until 48 hours), average of 2 analyses
  Compounds Detected by Radiochromatography in feces, percent of total peaks, individual dogs: 78.6% and 50.6% and 85.7% and 88.8%
[3]; feces 0-24 hours post dose (dog 7 until 48 hours), listed as [^14C]DVS
  Radioactivity as % of Dose in feces, individual dogs: 4.4% and 0.3% and 4.0% and 3.3%
[3]; feces 0-24 hours post dose
  Compounds Detected by Radiochromatography in feces, percent of total peaks, Mean ± S.D.: 76% and 75.9 ± 17.4%
  Radioactivity as % of Dose in feces, Mean ± S.D.: approximately 3%
[3]; feces 0-24 hours post dose, listed as [^14C]DVS
  Radioactivity as % of Dose in feces, Mean ± S.D.: 3.0 ± 1.9%
